How the values were obtained:
Format in all cases: in vivo
[1] = Body weight gain in 17 day rat developing type II collagen arthritis test; settings: vs vehicle treated disease controls
Excerpt: (§1) Female Lewis rats (n=74) weighing 140-161 grams (mean approximate weight=148 g) on day 0 of the study were obtained from Charles River Laboratories, Inc., Wilmington, Mass. Animals were identified by a distinct number delineating group and animal number. After randomization, all cages were labeled with protocol number, group number, and animal number with appropriate color-coding.
Animals were anesthetized with Isoflurane and received subcutaneous/intradermal (SC/ID) injections with […] of Freund's Incomplete Adjuvant (Difco, Detroit, Mich.) containing 2 mg/ml bovine type II collagen (Elastin Products, Owensville, Mo.) at the base of the tail and two sites on the back on days 0 and 6. Dosing was initiated on day 0 of the study (prior to boosting procedures) and continued daily (QD at 24 hour intervals) through day 16. Animals were terminated on day 17. […]
Clinical data for ankle joint diameter were analyzed by determining the area under the curve (AUC). […] Means for each group were determined and % inhibition from arthritis controls was calculated by comparing values for treated and […] animals. Data were analyzed using a Student's t-test or Mann-Whitney U test (non-parametric). If applicable, data were analyzed again, across all groups, using a one-way analysis of variance (1-way ANOVA) or Kruskal-Wallis test (non-parametric), along with the appropriate multiple comparison post-test. […]

[2] = tested on: developing type II collagen arthritis in rats; assay: Knee histopathology in 17 day rat developing type II collagen arthritis test
Excerpt: as §1
(§2) Animals were anesthetized with Isoflurane and received subcutaneous/intradermal (SC/ID) injections with […] of Freund's Incomplete Adjuvant (Difco, Detroit, Mich.) containing 2 mg/ml bovine type II collagen (Elastin Products, Owensville, Mo.) at the base of the tail and two sites on the back on days 0 and 6. Dosing was initiated on day 0 of the study (prior to boosting procedures) and continued daily (QD at 24 hour intervals) through day 16. Animals were terminated on day 17. The experimental groups were as follows in Table 1, wherein “CH vehicle” means the vehicle used to deliver the compound CH-4051 without the inclusion of the active compound, and “MTX vehicle” means the vehicle used to deliver methotrexate without the inclusion of the active compound. The terms “QD” and “PO” have the standard meanings in the art—i.e., “once daily” and “by mouth”, respectively.
(§3) After final body weight measurement on day 17, animals were anesthetized for terminal serum collection (retained), and then euthanized for tissue collection. Hind paws were transected at the level of the medial and lateral malleolus, weighed, and were placed in formalin with knees for potential microscopy. Livers, spleen, and thymus were removed, trimmed, weighed, and discarded.
(§4) Preserved and decalcified (5% formic acid) ankle and knee joints were cut in half longitudinally (ankles) or in the frontal plane (knees), processed through graded alcohols and a clearing agent, infiltrated and embedded in paraffin, sectioned, and stained with Toluidine Blue (T. blue) by Bolder BioPATH, Inc. associated personnel (HistoTox Labs, Inc.). Tissues from all animals were examined microscopically by a board certified veterinary pathologist, and observations were entered into a computer-assisted data retrieval system.
(§5) Clinical data for ankle joint diameter were analyzed by determining the area under the curve (AUC). For calculation of AUC, the daily measurement of ankle joints (using a caliper) for each rat were entered into a spreadsheet, and the area between the treatment days after the onset of disease to the termination day was computed. Means for each group were determined and % inhibition from arthritis controls was calculated by comparing values for treated and […] animals. Data were analyzed using a Student's t-test or Mann-Whitney U test (non-parametric). If applicable, data were analyzed again, across all groups, using a one-way analysis of variance (1-way ANOVA) or Kruskal-Wallis test (non-parametric), along with the appropriate multiple comparison post-test. ANOVA was performed using Prism 5.0c software (GraphPad Software, Inc.). Significance for all tests was set at p<0.05. Percent inhibition was calculated using the following formula: […]. The results of the testing are described below in relation to the various, referenced figures. In all cases, n=4 for Normal Controls, and n=10 for the treatment group.

[3] = tested on: developing type II collagen arthritis in rats; assay: as above; settings: 0.2 mg/kg MTX 2X/week PO (Group 6); vs vehicle controls
[4] = tested on: developing type II collagen arthritis in rats; assay: Ankle diameter (caliper) in 17 day rat developing type II collagen arthritis test; settings: for Daily ankle diameter reduced toward normal, days of significance: vs vehicle controls; for Ankle diameter AUC reduction toward normal: vs vehicle treated disease controls
Excerpt: as §1, §2
Rats were weighed on days 0, 3, 6, and 9-17 of the study, and caliper measurements of ankles were taken every day beginning on day 9 (or day 0 of arthritis). Ankle caliper measurements were made with Digitrix II micrometer (Fowler & NSK). Baseline measurements were taken using one ankle with values rounded to one-thousandth of an inch. Measurements were confirmed as clinically normal (0.260-0.264 inches) by comparison with historical values for rats based on a range of body weights. Baseline measurements were then applied to both ankles, and these values remained with the animal so long as the ankle was clinically normal with good definition of all the ankle bones and no evidence of inflammation.
Clinical data for ankle joint diameter were analyzed by determining the area under the curve (AUC). […] Means for each group were determined and % inhibition from arthritis controls was calculated by comparing values for treated and […] animals. Data were analyzed using a Student's t-test or Mann-Whitney U test (non-parametric). If applicable, data were analyzed again, across all groups, using a one-way analysis of variance (1-way ANOVA) or Kruskal-Wallis test (non-parametric), along with the appropriate multiple comparison post-test. […] Percent inhibition was calculated using the following formula: % Change=B/A×100, wherein A is the mean normal (mean disease control), and B is the mean treated (mean disease control). […]

[5] = tested on: developing type II collagen arthritis in rats; assay: Overall effect on developing arthritis parameters, rat type II collagen arthritis; settings: for Effect on arthritis parameters: alone
Excerpt: as §1, §2, §5

[6] = tested on: developing type II collagen arthritis in rats; assay: Ankle histopathology in 17 day rat developing type II collagen arthritis test; settings: for Ankle histopathology, reduction of summed scores: vs vehicle treated disease controls
Excerpt: as §1, §2, §3, §4, §5

[7] = 0.2 mg/kg MTX 2X/week PO (Group 6)
[8] = 0.1 mg/kg methotrexate alone (Group 3), FIG. 18
[9] = 0.1 mg/kg methotrexate alone (Group 3), FIG. 10
[10] = 0.2 mg/kg methotrexate alone (Group 6), FIG. 13
[11] = 5 mg/kg CH-4051 daily PO (Group 7)
[12] = 2.5 mg/kg CH-4051 alone (Group 4), FIG. 19
[13] = 2.5 mg/kg CH-4051 alone (Group 4), FIG. 11
[14] = 5 mg/kg CH-4051 alone (Group 7), FIG. 14

With `CN(Cc1cnc2nc(N)nc(N)c2n1)c1ccc(C(=O)N[C@@H](CCC(=O)O)C(=O)O)cc1` [MTX, methotrexate] the “Body weight gain increase toward normal” value [1, 7] was 68%, the “Knee bone resorption, photomicrograph of highest summed score in group” value [2, 8] was “bone resorption” and the “Knee cartilage damage, photomicrograph of highest summed score in group” value [2, 8] was “mild”. For the same compound, the “Knee inflammation, photomicrograph of highest summed score in group” value (“Knee inflammation, photomicrograph” below) [2, 8] was “severe”, the “Knee pannus, photomicrograph of highest summed score in group” value [2, 8] was “mild” and the “Knee inflammation, photomicrograph” value ([2]; 0.2 mg/kg methotrexate alone (Group 6), FIG. 21) was “mild”. The “Knee bone resorption score reduction” value [3] was 95%, the “Knee cartilage damage score reduction” value [3] was 91% and the “Knee pannus score reduction” value [3] was 91%. The “Daily ankle diameter reduced toward normal, days of significance” value ([4]; 0.1 mg/kg MTX 2X/week PO (Group 3)) was “significant at day 11”, the “Ankle diameter AUC reduction toward normal” value [4, 7] was 72% and the “Effect on developing arthritis parameters” value ([5]; 0.1 mg/kg MTX (dosed 2 times per week)) was “only minimal, non-significant effects”. The “Effect on arthritis parameters” value ([5]; 0.2 mg/kg MTX twice weekly) was “good inhibition of all arthritis parameters”, the “Ankle histopathology, reduction of summed scores” value ([6]; 0.1 mg/kg MTX—Group 6 (so in the source)) was 59% and the “Ankle cartilage damage, photomicrograph of approximate mean summed score” value (from here on “Ankle cartilage damage, photomicrograph”) [6, 9] was “mild”. The “Ankle inflammation, photomicrograph of approximate mean summed score” value (“Ankle inflammation, photomicrograph” below) [6, 9] was “marked”, the “Ankle pannus, photomicrograph of approximate mean summed score” value (shortened to “Ankle pannus, photomicrograph”) [6, 9] was “minimal” and the “Ankle cartilage damage, photomicrograph” value [6, 10] was “minimal”. The “Ankle inflammation, photomicrograph” value [6, 10] was “mild” and the “Ankle pannus, photomicrograph” value [6, 10] was “minimal”.

In the case of `C=C(C[C@H](NC(=O)c1ccc(CCc2ccc3nc(N)nc(N)c3c2)cc1)C(=O)O)C(=O)O` [CH-4051, (S)-2-{4-[2-(2,4-diamino-quinazolin-6-yl)-ethyl]-benzoylamino}-4-methylene-pentanedioic acid], the “Body weight gain increase toward normal” value [1, 11] is reported as 84%, the “Knee bone resorption, photomicrograph of highest summed score in group” value [2, 12] is reported as “bone resorption” and the “Knee cartilage damage, photomicrograph of highest summed score in group” value [2, 12] is reported as “moderate”. The “Knee inflammation, photomicrograph” value [2, 12] was “severe”, the “Knee pannus, photomicrograph of highest summed score in group” value [2, 12] was “mild” and the “Knee inflammation, photomicrograph” value ([2]; 5 mg/kg CH-4051 alone (Group 7), FIG. 22) was “mild”. For the same compound, the “Knee histopathology, reduction of summed scores” value ([2]; 5 mg/kg CH-4051 daily PO (Group 7), vs vehicle treated disease controls) was 92%, the “Daily ankle diameter reduced toward normal, days of significance” value [4, 11] was “significant at days 10-17” and the “Ankle diameter AUC reduction toward normal” value [4, 11] was 81%. For the same compound, the “Effect on developing arthritis parameters” value ([5]; 2.5 mg/kg CH-4051 (daily doses)) was “only minimal, non-significant effects”, the “Effect on arthritis parameters” value ([5]; 5 mg/kg CH-4051 per day) was “good inhibition of all arthritis parameters” and the “Ankle cartilage damage, photomicrograph” value [6, 13] was “mild”. The “Ankle inflammation, photomicrograph” value [6, 13] was “marked”, the “Ankle pannus, photomicrograph” value [6, 13] was “mild” and the “Ankle cartilage damage, photomicrograph” value [6, 14] was “minimal”. The “Ankle inflammation, photomicrograph” value [6, 14] was “mild”, the “Ankle pannus, photomicrograph” value [6, 14] was “minimal” and the “Ankle histopathology, reduction of summed scores” value [6, 11] was 75%.

— patent US8658652B2, “Antifolate combinations” (Chelsea Therapeutics, Inc., priority 2010, dated 2014)
